Holding throughout (test): NCI tumour cell line growth inhibition, 48 h
The test system of assay [1] is HL-60(TB) leukemia.
Assay [2] concerns 786-0 renal.
The test system of assay [3] is IGROV1 ovarian.
The test system of assay [4] is SK-MEL-5 melanoma.
Assay [5] has as its system HT29 colon.
The test system of assay [6] is MOLT-4 leukemia.
Assay [7] deals with HOP-92 NSCLC.
The test system of assay [8] is A549 NSCLC.
In assay [9] the test system is SK-MEL-2 melanoma.
Assay [10] deals with DU-145 prostate.

Several values for one entry are separate records, joined by “and”; a condition that tells them apart may be missing. Equal values may be shown once.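 Test compounds were applied to cells in 96-well plates for 48 hours at 5 doses. GI50 = concentration required for 50% inhibition of growth. TGI: concentration producing complete growth inhibition.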

For `CC(C)(CCN=C(N)Nc1ccccn1)c1ccc(C(F)(F)F)cc1`, the GI50 in assay [1] was 17.1 µM; in assay [2] it was 13.3 µM; in [3], 12 µM; in [4] it was 12 µM; in assay [5] it was 10.4 µM; in assay [6], 14.5 µM. The GI50 in [7] was 13.3 µM; in assay [8], 16.5 µM; in assay [9] it was 16.9 µM; in assay [10] it was 16.2 µM. For the same compound, the TGI in [1] was found to be 36 µM; in assay [2], 28.2 µM; in assay [3], 26.2 µM; in [4], 25 µM; in [5], 24 µM; in assay [6] it was 37.4 µM. Besides, the TGI was found to be 27.6 µM in assay [7], 31.6 µM in assay [8], 32.9 µM in assay [9] and 31.8 µM in assay [10].
Regarding `CN(C)CCC=C1c2ccccc2C(C)(C)c2ccccc21`, the GI50 in [1] is 12.4 µM; in [2], 12.8 µM; in assay [3] it was 15.9 µM; in [4], 1.9 µM; in assay [5], 3.06 µM; in assay [6] it was 7.18 µM. The GI50 was 1.88 µM in assay [7], 15.8 µM in assay [8], 6.26 µM in assay [9] and 14.3 µM in [10]. Moreover, the TGI in assay [1] stood at 27.1 µM; in assay [2], 27 µM; in [3] it was 31.7 µM; in assay [4], 5.09 µM; in [5] it was 13.6 µM; in [6], 23 µM. Moreover, the TGI is 14.7 µM in [7], 32 µM in assay [8], 22.1 µM in assay [9] and 27.3 µM in assay [10].
On to `O=c1c2cccc(F)c2sc2c(N3CCNCC3)nc3ccccc3c12`, for which the GI50 was 1.76 µM in assay [1]; 1.74 µM in [2]; 1.22 µM in assay [3]; 1.69 µM in [4]; 1.13 µM in [5]; 0.449 µM in assay [6]. Moreover, the GI50 in assay [7] was 1.11 µM; in assay [8] it was 0.89 µM; in assay [9] it was 1.76 µM; in assay [10] it was 1.4 µM. The TGI in [1] turned out to be 3.44 µM; in [2], 3.28 µM; in [3] it was 2.55 µM; in assay [4] it was 3.08 µM; in [5] it was 2.59 µM; in [6] it was 1.71 µM. For the same compound, the TGI in assay [7] worked out at 2.6 µM; in assay [8], 2.71 µM; in [9], 3.46 µM; in [10] it was 2.76 µM.
Consider `COC(C(=O)C(O)C(C)O)C1Cc2cc3cc(OC4CC(OC5CC(O)C(O)C(C)O5)C(O)C(C)O4)c(C)c(O)c3c(O)c2C(=O)C1OC1CC(OC2CC(O)C(OC3CC(C)(O)C(O)C(C)O3)C(C)O2)C(O)C(C)O1` (configuration not stated), for which the GI50 in assay [1] is 0.00227 µg/mL; in [2], 0.0112 µg/mL and 0.0152 µg/mL; in assay [3], 0.0112 µg/mL and 0.00231 µg/mL; in [4], 0.0112 µg/mL and 0.00186 µg/mL; in assay [5] it was 0.00284 µg/mL; in assay [6] it was 0.0112 µg/mL and 0.00269 µg/mL. The GI50 is 0.0112 µg/mL and 0.00321 µg/mL in assay [7]; 0.0126 µg/mL and 0.00127 µg/mL in [8]; 0.0112 µg/mL and 0.0015 µg/mL in assay [9]; 0.0274 µg/mL and 0.0435 µg/mL in [10]. Further, the TGI in [1] was 0.188 µg/mL; in assay [2], 112 µg/mL and 64.7 µg/mL; in assay [5] it was 2.03 µg/mL; in assay [7] it was 0.08 µg/mL and 0.082 µg/mL; in assay [10], 112 µg/mL and 127 µg/mL.
Turning to `NCCCn1c2c(c3ccc([N+](=O)[O-])cc3c1=O)C(=O)c1cc(-c3ccccc3)ccc1-2`, the GI50 in assay [1] was 0.5 µM; in assay [2], 0.181 µM; in assay [4] it was 1.31 µM; in assay [5] it was 0.19 µM; in [6], 0.235 µM; in [7], 1.36 µM. For the same compound, the GI50 in assay [8] was 0.237 µM; in assay [9] it was 0.438 µM; in assay [10], 0.491 µM. Further, the TGI is 1.3 µM in assay [1]; 0.334 µM in [2]; 2.62 µM in [4]; 0.368 µM in assay [5]; 0.595 µM in [6]; 3.15 µM in assay [7]. Moreover, the TGI in assay [8] amounted to 0.552 µM; in [9], 1.27 µM; in assay [10], 1.02 µM.
For the compound `CNc1cc2nc3cc(NC)c(C)cc3cc2cc1C`, the GI50 in assay [1] was 2.58 µM; in [2], 0.683 µM; in assay [3], 0.562 µM; in assay [4], 2.05 µM; in assay [5], 0.3 µM; in assay [6], 0.514 µM. Besides, the GI50 in [7] was 1.76 µM; in assay [9], 6 µM; in assay [10], 0.861 µM. In addition, the TGI is 15.9 µM in assay [1]; 2.05 µM in assay [2]; 16.2 µM in assay [3]; 14 µM in assay [4]; 1.1 µM in assay [5]; over 100 µM in [6]. In addition, the TGI in assay [7] worked out at 19.1 µM; in assay [9], 26.2 µM; in assay [10], 11.5 µM.
Regarding `O=S1(=O)NC2CCC3NS(=O)(=O)NC4CCC(N1)N4S(=O)(=O)N23` (configuration not stated), the TGI in assay [1], in assay [2], in assay [3], in assay [4], in assay [5] and in [7] was over 100 µM throughout. Moreover, the TGI in [8], in [9] and in [10] was over 100 µM in each case.
As for `CC(=O)OC12c3ccccc3-c3ccccc3C1C(C(=O)O)C2(Cl)C(=O)O` (configuration not stated), the TGI in assay [1], in [2], in [3], in assay [4], in [5] and in assay [6] was over 10 µM each time. The TGI in [7], in assay [9] and in [10] was over 10 µM each time.
Turning to `O=[N+]([O-])c1ccc(Sc2nc(Cl)nc(NC3CCCC3)n2)cc1`, the GI50 in [1] is over 10 µM; in assay [2], over 10 µM; in assay [3], 2.84 µM; in assay [4], 5.32 µM; in [5] it was over 10 µM; in assay [6] it was over 10 µM. For the same compound, the GI50 in assay [7] was over 10 µM; in assay [9], over 10 µM; in [10], 7.99 µM. Moreover, the TGI in assay [1], in [2], in [3], in [4], in [5] and in assay [6] was over 10 µM in each case. The TGI in assay [7], in assay [9] and in [10] was over 10 µM throughout.

These data come from PubChem BioAssay (NCI).
